Data as given in patent US12428402B2, “Resmetirom crystal, preparation method for same, and uses thereof” (CRYSTAL PHARMACEUTICAL (SUZHOU) CO., LTD., priority 2019, dated 2025).
Values after ≈ are worked out from the molar mass of the structure shown. Values joined by “and” are separate entries in the source; they are usually repeats but may differ in a detail not shown here. Equal values may be shown once. “Also recorded” adds a separate entry of the source.

Columns and labels:
Assay type in all cases: physicochemical
[1] = Kinetic solubility in SGF; details: for 1 hour Concentration: equilibrated 1 h
Method: When solubility test is used to predict the in vivo performance of a drug, it is critical to simulate in vivo conditions as closely as possible. SGF can be used to simulate the condition in vivo and predict the effects of eating, thus solubility in this medium is closer to that in vivo.
Approximately 5-20 mg of Form CSIV and 5-20 mg Form CSV of the present disclosure were suspended into 2.0 mL of SGF to get suspensions. After equilibrated for 1 h and 24 h, concentrations (μg/mL) of these solutions were measured by UPLC.

[2] = Physical and chemical stability on storage (XRPD, HPLC)
Method: A certain amount of Form CSIV of the present disclosure was sealed up and stored under different conditions of 25° C./60% RH, 40° C./75% RH, and 60° C./75% RH. Crystalline form and chemical purity were checked by XRPD and HPLC, respectively.
A certain amount of Form CSV of the present disclosure was stored under different conditions of 40° C./75% RH and 60° C./75% RH in open and sealed dishes. Crystalline form and chemical purity were checked by XRPD and HPLC, respectively.

[3] = Hygroscicity by dynamic vapor sorption (DVS); details: for hygroscopicity class / weight gain: 25° C./80% RH; for hygroscopicity class: Chinese Pharmacopoeia definition; for weight gain: DVS; for crystalline state before and after DVS: cycle of 0-95% RH
Method: Dynamic Vapor Sorption (DVS) was measured via an SMS (Surface Measurement Systems Ltd.) intrinsic DVS instrument. Typical Parameters for DVS test are as follows: • Temperature: 25° C. • Gas and flow rate: N2, 200 mL/min • RH range: 0% RH to 95% RH
Dynamic vapor sorption (DVS) analyzer was applied to test hygroscopicity of Form CSIV and Form CSV with certain amount of samples. The weight gains at each relative humidity were recorded in a cycle of 0-95% RH. […] The weight gain of Form CSV under 25° C./80% RH is 0.13%. […] The DVS curve of Form CSIV and Form CSV are shown in FIG. 9 and FIG. 10, respectively.
Description and definition of hygroscopicity (general notice 9103 drug hygroscopicity test guidelines in 2020 edition of Chinese Pharmacopoeia, test at 25° C.±1° C., 80% RH±2% RH. The definition of hygroscopicity in the 9th European Pharmacopoeia 5.11 is consistent with the Chinese Pharmacopoeia). • deliquescent: Sufficient water is absorbed to form a solution; • very hygroscopic: Increase in mass is equal to or greater than 15%; • hygroscopic: Increase in mass is less than 15% and equal to or greater than 2%; • slightly hygroscopic: Increase in mass is less than 2% and equal to or greater than 0.2%. • non hygroscopic or almost non hygroscopic: Increase in mass is less than 0.2%.

[4] = Compressibility (manual tablet press, tensile strength); details: for Diameter / Hardness / Thickness: 80 mg, φ6 mm round tooling, 10 kN, 24 h at room temperature; for Diameter / Hardness / Thickness / Tensile strength: tablets 1 and 2; for Average tensile strength / Tensile strength: T=2H/πDL
Method: ENERPAC manual tablet press was used for compression. 80 mg of Form CSIV and 80 mg of Form I were weighed and added into the dies of a φ6 mm round tooling, compressed at 10 kN manually, then stored at room temperature for 24 h. Diameter (D) and thickness (L) were tested with caliper. When elastic recovery is complete, hardness (H) was tested with an intelligent tablet hardness tester. Tensile strength of the powder was calculated with the following formula: T=2H/πDL. Under a certain force, the greater the tensile strength, the better the compressibility.

[5] = Physical stability upon grinding (XRPD); details: ground manually for 5 minutes in a mortar
Method: Form CSV and Form I were grounded manually for 5 minutes in a mortar. Crystalline forms before and after grinding were checked by XRPD. […] Compared with Form I, Form CSV has better physical stability upon grinding.

[6] = 40° C./75% RH (open), one month
[7] = 40° C./75% RH (sealed), one month
[8] = 60° C./75% RH (sealed), one week

1 hour Concentration ([1]; UPLC) [µg/mL]	solubility relative to that of Form I ([1]; equilibrated 1 hour) [times]	solubility relative to that of Form I ([1]; equilibrated 24 hours) [times]	Crystalline form ([2]; Initial)	weight gain [3] [%]	crystalline state before and after DVS [3]	Diameter [4]	Hardness [4]	Thickness [4]	Average tensile strength ([4]; compressed at 10 kN) [MPa]	Tensile strength ([4]; compressed at 10 kN)	SMILES	hygroscopicity class [3]	crystalline state after grinding [5]	also measured
11.7	10.6	5.0	Form CSIV	0.58	remains unchanged before and after DVS	6.03 mm and 6.04 mm	28.3 kg and 27.7 kg	2.12 mm	1.40	1.41 MPa and 1.38 MPa	CC(C)c1cc(Oc2c(Cl)cc(-n3nc(C#N)c(=O)[nH]c3=O)cc2Cl)n[nH]c1=O [Form CSIV, 2-(3,5-dichloro-4-((5-isopropyl-6-oxo-1,6-dihydropyridazin-3-yl)oxy)phenyl)-3,5-dioxo-2,3,4,5-tetrahydro-1,2,4-triazine-6-carbonitrile]	slightly hygroscopic (Increase in mass is less than 2% and equal to or greater than 0.2%)		solubility thermodynamic at 24 h ([1]; simulated gastric fluid, thermodynamic from solid, equilibrated 24 h, UPLC, read-out: 24 hours Concentration): 5.5 µg/mL (≈ 12.6 µM); time for which the form is stable / crystalline state doesn't change ([2]; 25° C./60% RH sealed): at least 6 months; Crystalline form ([2]; 25° C./60% RH sealed, 6 months): Form CSIV; time for which the form is stable / crystalline state doesn't change ([2]; 40° C./75% RH sealed): at least 6 months; Crystalline form ([2]; 40° C./75% RH sealed, 6 months): Form CSIV; Purity ([2]; 40° C./75% RH sealed, 6 months): 99.76%; time for which crystalline state doesn't change ([2]; 60° C./75% RH sealed): at least 1 month; time for which the form is stable ([2]; 60° C./75% RH sealed, in words): at least one month; Crystalline form ([2]; 60° C./75% RH sealed, one month): Form CSIV; Purity ([2]; Initial): 99.80%; crystalline state before and after tableting ([4]; compressed at 10 kN, XRPD): remains unchanged before and after tableting
7.8	7.1	8.7	Form CSV	0.13	remains unchanged before and after DVS						CC(C)c1cc(Oc2c(Cl)cc(-n3nc(C#N)c(=O)[nH]c3=O)cc2Cl)n[nH]c1=O [Form CSV, 2-(3,5-dichloro-4-((5-isopropyl-6-oxo-1,6-dihydropyridazin-3-yl)oxy)phenyl)-3,5-dioxo-2,3,4,5-tetrahydro-1,2,4-triazine-6-carbonitrile]	non hygroscopic or almost non-hygroscopic	does not change before and after grinding; also recorded: doesn't change after grinding	24 hours Concentration ([1]; equilibrated 24 h, UPLC): 9.6 µg/mL; Crystalline form [2, 6]: Form CSV; Purity [2, 6]: 99.81%; Crystalline form [2, 7]: Form CSV; Purity [2, 7]: 99.85%; chemical purity during storage ([2]; 40° C./75% RH one month, 60° C./75% RH one week): above 99.8%; time for which the form is stable ([2]; 40° C./75% RH open and sealed dishes, in words): at least one months; time for which crystalline state doesn't change ([2]; 40° C./75% RH sealed, in words): at least one month; Crystalline form ([2]; 60° C./75% RH (open), one week): Form CSV; Purity ([2]; 60° C./75% RH (open), one week): 99.86%; Crystalline form [2, 8]: Form CSV; Purity [2, 8]: 99.87%; time for which the form is stable / crystalline form doesn't change ([2]; 60° C./75% RH open and sealed, in words): at least one week
						6.01 mm and 6.11 mm	8.7 kg and 7.9 kg	2.11 mm and 2.00 mm	0.43	0.44 MPa and 0.41 MPa	CC(C)c1cc(Oc2c(Cl)cc(-n3nc(C#N)c(=O)[nH]c3=O)cc2Cl)n[nH]c1=O [Form I, 2-(3,5-dichloro-4-((5-isopropyl-6-oxo-1,6-dihydropyridazin-3-yl)oxy)phenyl)-3,5-dioxo-2,3,4,5-tetrahydro-1,2,4-triazine-6-carbonitrile, reference compound]		almost transform into amorphous after grinding; also recorded: transforms into amorphous after grinding	
